Results reported in patent publication US20130165522A1, “GEL FORMULATIONS FOR THE TOPICAL USE OF 1-AMINO-ALKYLCYCLOHEXANE DERIVATIVES” (MERZ PHARMA GmbH & CO. KGaA, priority 2010, published 2013).

Legend:
Propionibacterium acnes = assay: Antibacterial activity; type: cell-based
Staphylococcus aureus = assay: Antibacterial activity; type: cell-based

**Q.** For `CC1(C)CC(C)(C)CC(C)(N)C1` [neramexane, 1-amino-1,3,3,5,5-pentamethylcyclohexane], which antibacterial activity (Propionibacterium acnes) is on record?
**A.** Its antibacterial activity is “exhibits antibacterial activity”.

**Q.** And the antibacterial activity (Staphylococcus aureus)?
**A.** The antibacterial activity was “exhibits antibacterial activity”.
